One assay addresses T1, HBV core protein (Hepatitis B virus genotype D subtype ayw, UniProt P03146).
T1 construct: withdrawal of doxycycline from the cell culture medium which results in expression of core and polymerase HBV proteins; expressed in transfected cells; host or cells: HepG2.117 (human hepatoma-derived, stably transfected with the HBV genome, Tet-off)
The assay is described as follows: Cellular HBV core high-content imaging assay (cytosolic and nuclear aggregated core / core speckling). Type of assay: cell-based. The note with it: HepG2.117 cells; for dose-dependent cytoplasmic and nuclear core speckling phenotype / Cytosolic aggregated core Median max effect at 25 μM (Range) / Nuclear aggregated core Median max effect at 25 μM (Range) / EC50: 72 h; for dose-dependent cytoplasmic and nuclear core speckling phenotype: 11 concentrations, robustness test; for Cytosolic aggregated core Median max effect at 25 μM (Range) / Nuclear aggregated core Median max effect at 25 μM (Range): normalized to 1 μM GLS-4 high control (100% effect); for EC50: median over inter-/intra-assay plate groups. As for the experimental part: After trypsinization, HepG2.117 cells were washed once with phosphate buffered saline (PBS). Cells were centrifuged at 1,500 rpm for 5 minutes and divided in two fractions. The fraction that was used for the core-suppressed HepG2.117 cell controls (background control, BC) was resuspended in DMEM supplemented with 2% Tet-system-approved fetal calf serum (FCS; Clontech), 2 mM alanyl-glutamine, lx non-essential amino acids (NEAA; Sigma-Aldrich), and 100 ng/ml doxycycline to suppress core expression. The other fraction was resuspended in DMEM supplemented with 2% Tet-system-approved FCS, 2 mM alanyl-glutamine, and 1×NEAA and used for sample wells, the core-expressing low control wells (LC) and aggregated core-expressing high control wells (HC). 2,000 cells per well were seeded for the assay validation, while 1,500 cells per well were seeded in the cellular screening campaign. Test compound-containing 384-well black poly-D-lysine CellCarrier tissue culture treated plates with an optically clear bottom (Perkin Elmer, Waltham, Mass.) were used. Test compounds were used in dose range in the presence of 1% dimethyl sulfoxide (DMSO). Aggregated core expressing high control wells were treated with 1 μM GLS-4. Compound plates with seeded cells were incubated for 72 h at 37° C. and 5% CO2.
After about 72 hours, cells were fixed with 5% ultra-pure methanol-free formaldehyde (Polysciences, Warrington, Pa.) for 15 minutes and washed three times with PBS. Next, cells were permeabilized for 30 minutes using 0.5% Triton-X-100 (Sigma-Aldrich) dissolved in PBS and washed again three times with PBS. Cells were incubated for 1 hour with PBS containing 5% bovine serum albumin to block Fc receptors. Core protein was detected with primary monoclonal mouse core antibody at a concentration of 666 ng/ml or polyclonal rabbit core antibody at a concentration of 65 μg/ml in PBS containing 5% bovine serum albumin (Sigma-Aldrich). After overnight incubation at 4° C., cells were washed three times with PBS and primary antibody was detected with 2 μg/ml Alexa Fluor-488 goat anti-mouse or goat anti-rabbit secondary antibody. Nuclei and cytoplasm were co-stained using 2 μg/ml Hoechst 33258 (nuclei) and 500 ng/ml HCS CellMask™ Deep Red (entire cells) solution. After 1 hour of incubation at room temperature, cells were washed three times with PBS.
The Opera Phenix™ high-content screening system (Perkin Elmer) was used for automated imaging. A 405-nm laser with 100% power was used with an exposure time of 200 ms to excite Hoechst 33258 (emitting its fluorescent light at 461-nm); emission light was captured using a 435/480 nm emission filter. Simultaneously, HCS CellMask™ Deep Red signal (emitting its fluorescent light at 655-nm) was excited by a 635-nm laser with a 25 ms exposure time and a laser power reduced to 25%; red emitted light was captured using an emission filter of 650/760 nm. Alexa Fluor 488 fluorophores were excited using a 488-nm laser with 100% power and an exposure of 200 ms, whereby the emission filter 500/550 nm was chosen. This detection was performed independently from Hoechst and HCS CellMask™ Deep Red as the fluorescence spectrum of Hoechst overlaps with that of Alexa Fluor-488. A 20× water immersion objective with a numerical aperture of 1.0 was used for imaging of four fields per well.
Images were analyzed with a custom Acapella (Perkin Elmer) script. Nuclei identification was based on the Hoechst 33258 channel, cytoplasm segmentation was based on the HCS CellMask™ Deep Red channel and core protein intensity and texture features were calculated using the Alexa Fluor 488 channel. The cell count feature was used as a measure for cytotoxicity. […] The texture feature “SERSpot” at scale 1.0 was calculated in the nuclear and cytoplasm region of each cell to quantify aggregated core and averaged across all cells on the well-level.

The target of assay [1] is T2, intracellular capsids (HBV core protein) (Hepatitis B virus genotype D subtype ayw, UniProt P03146).
T2 construct: withdrawal of doxycycline from the cell culture medium which results in expression of core and polymerase HBV proteins; expressed in transfected cells; host or cells: HepG2.117 (human hepatoma-derived, stably transfected with the HBV genome, Tet-off)
Kind of assay: Capsid depletion assay: native polyacrylamide gel electrophoresis with immunoblotting for detection of capsids. Type of assay: cell-based. The note with it: HepG2.117 cells treated for 3 days, native PAGE/western blot. As for the experimental part:
HepG2.117 cells cultured in 2% serum containing assay medium as described above were plated in a 12-well plate at a cell density of 500,000 cells/well and incubated at 37° C. and 5% CO2. After overnight incubation, cells were treated with test compound or DMSO for 72 hours at 37° C. and 5% CO2. Afterwards, cells were washed once with PBS and lysed with 300 μl 10 mM Tris-HCl (pH 7.6), 100 mM NaCl, 1 mM ethylenediaminetetraacetic acid (EDTA), and 0.1% NP-40 supplemented with 1× Halt™ Protease Inhibitor Cocktail (Thermo Fisher Scientific, Waltham, Mass.). After lysis of the cells at 37° C. for 10 minutes, cell debris was discarded by centrifugation at 5,000×g for 10 minutes. Supernatant was collected and protein concentration was determined using the DC (detergent compatible) protein assay (Bio-Rad, Hercules, Calif.). Of protein/sample, 2.2 μg was loaded on a NativePAGE™ Novex® 3-12% Bis-Tris Gel (Invitrogen, Waltham, Mass.) with electrophoresis performed at room temperature using NativePAGE™ Running Buffer and NativePAGE™ Cathode Additive. Proteins were transferred using the Novex® iBlot® Transfer Stack, PVDF, regular size kit followed by a standard immunoblotting procedure using primary polyclonal rabbit core antibody at a concentration of 16.25 μg/ml with overnight incubation. […]

The structures appear in SMILES notation. Where two headings read alike, the source gives them in different places.

T1 sequence (P03146 whole entry): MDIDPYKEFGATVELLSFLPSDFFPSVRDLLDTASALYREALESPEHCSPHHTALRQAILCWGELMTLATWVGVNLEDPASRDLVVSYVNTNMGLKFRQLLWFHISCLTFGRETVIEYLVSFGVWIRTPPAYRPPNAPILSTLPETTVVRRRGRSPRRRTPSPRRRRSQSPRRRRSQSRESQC
T2 sequence (P03146 whole entry): as above

One may read the EC50 as the concentration at which the effect is half-maximal. Consider `COC(=O)C1=C(CN2CCOCC2)NC(c2ccccn2)=NC1c1ccc(F)cc1Cl` (stereo not shown) [Compound 5], for which, at HBV core protein, the “dose-dependent cytoplasmic and nuclear core speckling phenotype” value was “dose-dependent cytoplasmic and nuclear core speckling phenotype was observed”; the “Cytosolic aggregated core Median max effect at 25 μM (Range)” value worked out at 72.1; the “Nuclear aggregated core Median max effect at 25 μM (Range)” value was found to be 86.2. The EC50 on HBV core protein (read-out: Cytosolic aggregated core Median EC50 (μM) (Range)) stood at 0.078 µM. Moreover, the EC50 at HBV core protein (read-out: Nuclear aggregated core Median EC50 (μM) (Range)) came to 0.085 µM.

On to `COC(=O)C1=C(C)NC(c2ncc(F)cc2F)=N[C@H]1c1ccc(F)cc1Cl` [Compound 14], for which, in assay [1], the “depletion of intracellular capsids” value is on record as “dose-dependent depletion of intracellular capsids”. At HBV core protein, the “dose-dependent cytoplasmic and nuclear core speckling phenotype” value was “dose-dependent cytoplasmic and nuclear core speckling phenotype was observed”; the “Cytosolic aggregated core Median max effect at 25 μM (Range)” value is listed as 68.1; the “Nuclear aggregated core Median max effect at 25 μM (Range)” value is recorded as 139.2. In addition, the “phenotypic core immunostaining pattern” value at HBV core protein (core expressing (-DOX), FIG. 2A/2B) is on record as “aggregated dot-like pattern of core proteins”.

The values are drawn from patent US20230228736A1, “IN VITRO HBV CORE PROTEIN ASSAY” (Janssen Sciences Ireland Unlimited Company, priority 2020, published 2023).
